These results are taken from patent US20230072421A1, “TARGETED RADIOPHARMACEUTICALS FOR THE DIAGNOSIS AND TREATMENT OF PROSTATE CANCER” (Bayer AS, priority 2019, published 2023).

SMILES strings stand for the structures.

In one assay the test system is VCaP cells. The assay is described as follows: Cell proliferation assay (CellTiter-Glo, 5-day exposure), VCaP. The class given is cell-based. The settings on record: 4000 cells/well, Th-227 labelled at 375 kBq/nmol, mean of 1 to 6 experiments. The method, boiled down: (§1)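 Prostate cancer cells (VCaP 4000/well; 22Rv1, C4-2, LNCaP 1000/well), Th-227-labelled PSMA ligands, 5-day exposure; viability by CTG at start and end.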
On the technique in general: ATP-based viability assays read luminescence as a measure of living cells.

A further assay concerns C4-2 cells. The assay can be described thus: Cell proliferation assay (CellTiter-Glo, 5-day exposure), C4-2. The class given is cell-based. The settings on record: C4-2, 1000 cells/well, Th-227 labelled at 375 kBq/nmol, mean of 1 to 6 experiments. The method, boiled down:
as §1

The test system of another assay is 22Rv1 cells. The assay is described as follows: Cell proliferation assay (CellTiter-Glo, 5-day exposure), 22Rv1. The class given is cell-based. The settings on record: 22Rv1, 1000 cells/well, Th-227 labelled at 375 kBq/nmol, mean of 1 to 6 experiments. The method, boiled down: as §1
The subject of the next assay is LNCaP cells. The assay is described as follows: Cell proliferation assay (CellTiter-Glo, 5-day exposure), LNCaP. The settings on record: LNCaP, 1000 cells/well; Th-227 labelled at 375 kBq/nmol; 5-day exposure; mean of 1 to 6 experiments. The class given is cell-based, human. Summed up:
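Prostate cancer lines are exposed for 5 days to serially diluted Thorium-227 labeled PSMA ligands at 375 kBq/nmol, with viability of treated and untreated cells measured by CellTiter-Glo. Baseline viability is taken in parallel plates when treatment starts.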

Assay [1] deals with T1, PSMA-expressing LNCaP cells (Homo sapiens, UniProt Q04609).
T1 construct: PSMA-expressing LNCaP cells; endogenous in cells; host or cells: LNCaP
The assay is described as follows: Internalization assay (membrane bound and internalized Th-227). It is filed as cell-based. The settings on record: 10 nM radiolabeled compound, Th-227 at 375 kBq/nmol, triplicates; for Internalized in LNCaP fmol/10^6 cells 30 min / Membrane bound in LNCaP fmol/10^6 cells 30 min: 30 min incubation; for Internalized in LNCaP fmol/10^6 cells 2 h / Membrane bound in LNCaP fmol/10^6 cells 2 h: 2 h incubation. On the procedure:
For internalization assays 24 well plates (#3526, Corning) were coated with 200 μl Poly-L-Lysine (0.1 mg/ml, #3438-100-01, Fa. Cultrex) per well for 2 h at 37° C. […] Cells were incubated at 37° C. and 5% CO2 over night. On the following day 400 μl of the media were removed and a total of 200 μl growth medium added supplemented with PSMA-SMOLs labeled with Th-227 at 375 kBq/nmol in triplicates. Radiochemical purity of the labeling was analyzed by instant thin layer chromatography and found to be above 70% for all compounds used. The final concentration of radiolabeled SMOLs was in the test wells was 10 nM. Cells were incubated for 30 min or 2 h. After the incubation time supernatants were taken off and cells washed with PBS. Thereafter cells were washed twice with 0.2 ml 50 mM Glycine-HCl buffer (#55097, Sigma Aldrich) and once with PBS and the washing solutions combined in counting vials (#TK75-018, Fa. Corning) and subjected to gamma counting (1470 Wizard automatic gamma counter, Wallac). The resulting counts were attributed to membrane bound radioactivity. Cells were then lysed with 500 μl 0.3N NaOH (#181691.1211, Fa. PanReac AppliChem ITW Reagents) followed by another wash with 500 μl PBS. The NaOH lysate as well as the final wash were combined in vials and subjected to gamma counting as described above. Measured radioactivity was attributed to internalized fraction. Results were calculated as fmol of Th-227 per/10^cells in the membrane bound and internalized fractions from triplicate values.

T1 sequence (Q04609 whole entry): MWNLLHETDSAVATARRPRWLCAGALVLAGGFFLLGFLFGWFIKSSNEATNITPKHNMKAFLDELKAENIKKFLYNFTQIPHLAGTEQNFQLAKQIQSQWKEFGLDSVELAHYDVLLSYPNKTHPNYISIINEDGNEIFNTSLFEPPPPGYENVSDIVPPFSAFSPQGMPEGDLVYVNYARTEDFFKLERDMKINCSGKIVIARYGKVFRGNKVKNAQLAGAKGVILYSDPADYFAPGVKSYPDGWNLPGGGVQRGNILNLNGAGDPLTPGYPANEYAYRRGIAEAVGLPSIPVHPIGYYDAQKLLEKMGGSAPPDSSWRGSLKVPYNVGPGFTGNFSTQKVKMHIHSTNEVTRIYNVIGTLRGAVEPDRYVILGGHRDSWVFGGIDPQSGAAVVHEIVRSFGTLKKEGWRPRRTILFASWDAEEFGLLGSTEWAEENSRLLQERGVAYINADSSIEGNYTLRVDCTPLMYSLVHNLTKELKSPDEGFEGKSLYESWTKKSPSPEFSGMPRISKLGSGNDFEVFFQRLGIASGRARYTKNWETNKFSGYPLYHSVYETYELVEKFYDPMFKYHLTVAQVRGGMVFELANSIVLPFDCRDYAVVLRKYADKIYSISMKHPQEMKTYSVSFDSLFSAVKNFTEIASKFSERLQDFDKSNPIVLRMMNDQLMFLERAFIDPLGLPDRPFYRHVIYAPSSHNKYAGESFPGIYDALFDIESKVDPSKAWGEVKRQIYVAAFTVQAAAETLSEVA

As for `O=C([O-])CN1CCN(CC(=O)[O-])CCN(CC(=O)NCC2CCC(C(=O)NC(Cc3ccc4ccccc4c3)C(=O)NCCCCC(NC(=O)NC(CCC(=O)O)C(=O)O)C(=O)O)CC2)CCN(CC(=O)[O-])CC1.[227Th+4]` [Example 1-B-227Th, [^227Th]Thorium (3S,10S,14S)-3-[(naphthalen-2-yl)methyl]-1,4,12-trioxo-1-{(1r,4S)-4-[(2-{4,7,10-tris[(carboxy-kappaO)methyl]-1,4,7,10-tetraazacyclododecan-1-yl-kappa^4N^1,N^4,N^7,N^10}acetamido)methyl]cyclohexyl}-2,5,11,13-tetraazahexadecane-10,14,16-tricarboxylate], in the assay on VCaP cells, the “Proliferation assay on cancer cell lines by TTCs Default Pivot #3 IC50 [kBq/mL] VCap 4000cells 375kBq/nmol (mean)” value amounted to 0.38 kBq/mL. For the same molecule, the “Proliferation assay on cancer cell lines by TTCs Default Pivot #3 IC50 [kBq/mL] C4-2 1000cells 375kBq/nmol (mean)” value in the assay on C4-2 cells is on record as 0.17 kBq/mL. Also, the “Proliferation assay on cancer cell lines by TTCs Default Pivot #3 IC50 [kBq/mL] 22Rv1 1000cells 375kBq/nmol (mean)” value in the assay with 22Rv1 cells was found to be 0.71 kBq/mL. For the same molecule, the “Proliferation assay on cancer cell lines by TTCs Default Pivot #3 IC50 [kBq/mL] LnCap 1000cells 375kBq/nmol (mean)” value with LNCaP cells was 0.03 kBq/mL. In assay [1], the “Internalized in LNCaP fmol/10^6 cells 30 min” value was 55 fmol/10^6 cells, the “Membrane bound in LNCaP fmol/10^6 cells 30 min” value amounted to 237 fmol/10^6 cells, the “Internalized in LNCaP fmol/10^6 cells 2 h” value worked out at 189 fmol/10^6 cells and the “Membrane bound in LNCaP fmol/10^6 cells 2 h” value stood at 438 fmol/10^6 cells.
Turning to `O=C([O-])CN1CCN(CC(=O)[O-])CCN(CC(=O)NCC2CCC(C(=O)NC(Cc3ccc4ccccc4c3)C(=O)NCCCCC(NC(=O)NC(CCC(=O)O)C(=O)O)C(=O)O)CC2)CCN(CC(=O)[O-])CC1.[227Th+4]` [Example 1-B-D-227Th, [^227Th]Thorium-(3S,10S,14R)-3-[(naphthalen-2-yl)methyl]-1,4,12-trioxo-1-{(1r,4S)-4-[(2-{4,7,10-tris[(carboxy-kappaO)methyl]-1,4,7,10-tetraazacyclododecan-1-yl-kappa^4N^1,N^4,N^7,N^10}acetamido)methyl]cyclohexyl}-2,5,11,13-tetraazahexadecane-10,14,16-tricarboxylate], in the assay with VCaP cells, the “Proliferation assay on cancer cell lines by TTCs Default Pivot #3 IC50 [kBq/mL] VCap 4000cells 375kBq/nmol (mean)” value stood at 4.52 kBq/mL. In the assay on C4-2 cells, the “Proliferation assay on cancer cell lines by TTCs Default Pivot #3 IC50 [kBq/mL] C4-2 1000cells 375kBq/nmol (mean)” value turned out to be 3.15 kBq/mL. In addition, the “Proliferation assay on cancer cell lines by TTCs Default Pivot #3 IC50 [kBq/mL] 22Rv1 1000cells 375kBq/nmol (mean)” value with 22Rv1 cells is 1.28 kBq/mL. Moreover, in the assay on LNCaP cells, the “Proliferation assay on cancer cell lines by TTCs Default Pivot #3 IC50 [kBq/mL] LnCap 1000cells 375kBq/nmol (mean)” value is on record as 0.49 kBq/mL. For the same molecule, in assay [1], the “Internalized in LNCaP fmol/10^6 cells 30 min” value is recorded as 3 fmol/10^6 cells, the “Membrane bound in LNCaP fmol/10^6 cells 30 min” value was 16 fmol/10^6 cells, the “Internalized in LNCaP fmol/10^6 cells 2 h” value is given as 12 fmol/10^6 cells and the “Membrane bound in LNCaP fmol/10^6 cells 2 h” value is 30 fmol/10^6 cells.
